“And” between values parts separate entries of the source, which are not always exact repeats. Identical values can stand only once. Like-named read-outs stand apart in the source and are kept apart here.
Assays:
F X = biological target: T1, F X (Homo sapiens, UniProt P00742); assay: Coagulation factor assay (Biggs): Factor X; assay type: biochemical; conditions: for inhibition of coagulation factor X: in vitro; for F X (%): U.S.P. grade, control 78
T1 construct: from tissue; host or cells: human plasma
T1 sequence (P00742 41-488): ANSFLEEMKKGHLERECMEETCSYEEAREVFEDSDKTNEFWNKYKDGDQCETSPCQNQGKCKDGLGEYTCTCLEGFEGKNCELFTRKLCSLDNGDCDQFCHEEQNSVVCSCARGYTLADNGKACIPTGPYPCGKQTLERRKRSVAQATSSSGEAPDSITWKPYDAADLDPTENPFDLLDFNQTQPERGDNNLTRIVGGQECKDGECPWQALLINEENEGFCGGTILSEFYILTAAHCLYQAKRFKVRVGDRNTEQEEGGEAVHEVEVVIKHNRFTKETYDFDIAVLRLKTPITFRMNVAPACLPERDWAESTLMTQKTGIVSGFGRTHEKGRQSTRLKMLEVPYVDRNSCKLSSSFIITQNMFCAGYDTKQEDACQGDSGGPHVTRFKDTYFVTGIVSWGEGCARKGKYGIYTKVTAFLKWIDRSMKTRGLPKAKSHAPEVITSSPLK
Method: (§1) The effect of U.S.P. grade sodium bisulfite on blood coagulation factors is evaluated by standard procedures (Biggs) and the results are shown in Table III below.
(§2) References for PT, PTT, and assays of all the coagulation factors can be found in a standard textbook, entitled "Human Blood Coagulation, Haemostasis and Thrombosis", edited by Rosemary Biggs, published by Blackwell Scientific Publications, Oxford, England (2nd edition), pages 670-705, 1976.

F IX = biological target: T2, F IX (Homo sapiens, UniProt P00740); assay: Coagulation factor assay (Biggs): Factor IX; assay type: biochemical; conditions: for inhibition of coagulation factor IX: in vitro; for Factor IX (%): single experiment, control 50; for F IX (%): U.S.P. grade, control 66
T2 construct: from tissue; host or cells: human plasma
T2 sequence (P00740 47-461): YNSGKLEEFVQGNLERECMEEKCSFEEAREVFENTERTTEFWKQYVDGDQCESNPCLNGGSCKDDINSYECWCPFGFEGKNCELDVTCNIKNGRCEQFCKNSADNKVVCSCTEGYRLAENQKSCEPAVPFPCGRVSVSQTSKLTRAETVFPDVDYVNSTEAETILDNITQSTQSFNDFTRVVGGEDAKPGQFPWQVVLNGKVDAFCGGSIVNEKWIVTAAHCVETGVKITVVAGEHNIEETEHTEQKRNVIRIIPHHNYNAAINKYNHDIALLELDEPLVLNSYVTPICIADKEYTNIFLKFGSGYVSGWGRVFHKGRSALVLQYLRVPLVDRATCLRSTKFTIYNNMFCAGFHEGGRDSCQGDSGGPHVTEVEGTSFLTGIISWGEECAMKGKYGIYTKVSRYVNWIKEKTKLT
Method: as §1, §2

F VII = biological target: T3, F VII (Homo sapiens, UniProt P08709); assay: Coagulation factor assay (Biggs): Factor VII; assay type: biochemical; conditions: for inhibition of coagulation factor VII: in vitro; for F VII (%): U.S.P. grade, control 73
T3 construct: from tissue; host or cells: human plasma
T3 sequence (P08709 61-466): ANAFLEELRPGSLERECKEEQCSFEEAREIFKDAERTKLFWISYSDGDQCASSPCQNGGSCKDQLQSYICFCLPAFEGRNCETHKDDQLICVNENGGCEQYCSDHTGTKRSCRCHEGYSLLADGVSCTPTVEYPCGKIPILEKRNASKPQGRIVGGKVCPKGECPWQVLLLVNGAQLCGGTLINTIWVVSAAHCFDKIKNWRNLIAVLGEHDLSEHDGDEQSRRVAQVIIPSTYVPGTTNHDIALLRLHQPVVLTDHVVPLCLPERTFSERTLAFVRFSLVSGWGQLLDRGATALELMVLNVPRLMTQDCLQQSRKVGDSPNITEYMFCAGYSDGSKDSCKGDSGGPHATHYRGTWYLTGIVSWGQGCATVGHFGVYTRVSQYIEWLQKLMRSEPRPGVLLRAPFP
Method: as §1, §2

rabbit plasma = assay: Blood coagulation tests (PT, PTT, coagulation factors) in vitro; assay type: biochemical; conditions: for PT and PTT (effect in words): rabbit plasma in vitro, 0.5 mg/ml
Text: The alkali metalbisulfites, sodium and potassium, and ammonium bisulfite are found to prolong PT and PTT in a dose-related fashion.
The Solution I is found to prolong PT and PTT in a dose related fashion. […] The agent is active in inhibiting various coagulation factors, including factors VII, IX, X, XI, and XII.

human plasma [1] = assay type: biochemical
human plasma [2] = assay type: biochemical; remark: listed apart in the source
[3] = system: thrombus formation in the jugular vein; assay: I 125 fibrinogen technique, damaged jugular vein (venous thrombosis), continuous infusion; assay type: in vivo, rabbits; conditions: for radioactivity (I 125 fibrinogen) in damaged jugular vein of saline control rabbit relative to treated rabbit / thrombus formation in the jugular vein (conclusion in words): continuous infusion for five hours; for mortality of infused rabbits: continuous infusion
F XII = biological target: T4, F XII (Homo sapiens, UniProt P00748); assay: Coagulation factor assay (Biggs): Factor XII; assay type: biochemical; conditions: for inhibition of coagulation factor XII: in vitro; for F XII (%): U.S.P. grade, control 86
T4 construct: from tissue; host or cells: human plasma
T4 sequence (P00748 20-615): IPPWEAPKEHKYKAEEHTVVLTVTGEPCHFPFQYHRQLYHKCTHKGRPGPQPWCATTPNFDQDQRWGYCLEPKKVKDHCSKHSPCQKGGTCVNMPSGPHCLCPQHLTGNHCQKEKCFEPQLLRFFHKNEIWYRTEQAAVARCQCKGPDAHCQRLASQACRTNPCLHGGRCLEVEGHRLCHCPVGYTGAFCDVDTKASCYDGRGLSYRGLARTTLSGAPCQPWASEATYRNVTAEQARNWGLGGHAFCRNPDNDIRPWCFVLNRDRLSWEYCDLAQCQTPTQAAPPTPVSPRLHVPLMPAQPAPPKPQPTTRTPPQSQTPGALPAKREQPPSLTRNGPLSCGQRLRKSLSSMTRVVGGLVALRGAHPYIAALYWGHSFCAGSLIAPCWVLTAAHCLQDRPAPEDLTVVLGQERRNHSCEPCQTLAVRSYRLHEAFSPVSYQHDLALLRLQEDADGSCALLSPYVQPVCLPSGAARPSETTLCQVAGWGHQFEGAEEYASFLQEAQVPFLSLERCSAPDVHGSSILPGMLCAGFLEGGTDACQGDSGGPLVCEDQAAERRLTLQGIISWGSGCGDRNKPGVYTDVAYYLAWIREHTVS
Method: as §1, §2

F XI = biological target: T5, F XI (Homo sapiens, UniProt P03951); assay: Coagulation factor assay (Biggs): Factor XI; assay type: biochemical; conditions: for inhibition of coagulation factor XI: in vitro; for F XI (%): U.S.P. grade, control 117
T5 construct: from tissue; host or cells: human plasma
T5 sequence (P03951 19-625): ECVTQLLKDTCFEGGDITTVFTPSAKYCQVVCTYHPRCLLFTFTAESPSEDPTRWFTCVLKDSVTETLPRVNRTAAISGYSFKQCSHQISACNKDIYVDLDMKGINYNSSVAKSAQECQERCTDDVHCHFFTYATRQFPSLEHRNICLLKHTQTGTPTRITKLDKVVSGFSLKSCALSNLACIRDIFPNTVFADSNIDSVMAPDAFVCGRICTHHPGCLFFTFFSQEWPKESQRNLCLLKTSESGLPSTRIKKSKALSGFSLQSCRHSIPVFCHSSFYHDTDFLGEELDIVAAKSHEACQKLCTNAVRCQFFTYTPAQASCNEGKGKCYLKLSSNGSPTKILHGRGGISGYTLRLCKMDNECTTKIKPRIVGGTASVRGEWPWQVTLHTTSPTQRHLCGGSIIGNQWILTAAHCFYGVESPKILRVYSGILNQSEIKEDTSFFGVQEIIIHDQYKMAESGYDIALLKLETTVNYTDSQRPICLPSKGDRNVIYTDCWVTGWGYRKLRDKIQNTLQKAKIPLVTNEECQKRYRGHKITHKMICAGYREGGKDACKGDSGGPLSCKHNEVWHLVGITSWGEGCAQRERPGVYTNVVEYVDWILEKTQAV
Method: as §1, §2

Compound: CCN(CC)CC.O=S(O)O [TRIETHYL AMINE BISULFITE, triethyl amine bisulfite]
- inhibition of coagulation factor X (F X): active
- inhibition of coagulation factor IX (F IX): active
- Factor IX (%) (F IX): 14%
- inhibition of coagulation factor VII (F VII): active
- PT and PTT (effect in words) (rabbit plasma): significantly prolong
- MEAN LSD (PT) (human plasma [1]): 21.3 ± 3.0 s
- PT (effect in words) (human plasma [1]): significantly prolong
- PT(Sec) […]. 1 (human plasma [1]): 23.3 s
- PT(Sec) […]. 2 (human plasma [1]): 25.3 s
- PT(Sec) […]. 3 (human plasma [1]): 18.5 s
- PT(Sec) […]. 4 (human plasma [1]): 18.9 s
- PT(Sec) […].5 (human plasma [1]): 20.4 s
- MEAN LSD (PTT) (human plasma [2]): 73.1 ± 8.3 s
- PTT (effect in words) (human plasma [2]): significantly prolong
- PTT(Sec) […]. 1 (human plasma [2]): 24.7 s
- PTT(Sec) […]. 2 (human plasma [2]): 86.3 s
- PTT(Sec) […]. 3 (human plasma [2]): 64.2 s
- PTT(Sec) […]. 4 (human plasma [2]): 71.2 s
- PTT(Sec) […].5 (human plasma [2]): 68.9 s
- radioactivity (I 125 fibrinogen) in damaged jugular vein of saline control rabbit relative to treated rabbit [3]: seven times
- thrombus formation in the jugular vein (conclusion in words) [3]: definite positive antithrombotic effect
- inhibition of coagulation factor XII (F XII): active
- inhibition of coagulation factor XI (F XI): active

Compound: C[N+](C)(C)C [Tetramethyl-ammonium bisulfite]
- inhibition of coagulation factor X (F X): active
- inhibition of coagulation factor IX (F IX): active
- Factor IX (%) (F IX): 12.5%
- inhibition of coagulation factor VII (F VII): active
- PT and PTT (effect in words) (rabbit plasma): significantly prolong
- PT sec. (human plasma [1]): 21.7 s
- PT (effect in words) (human plasma [1]; in vitro, 0.5 mg/ml): significantly prolong
- PTT (effect in words) (human plasma [2]; in vitro, 0.5 mg/ml): significantly prolong
- mortality of infused rabbits [3]: death of the rabbit
- inhibition of coagulation factor XII (F XII): active
- inhibition of coagulation factor XI (F XI): active

Compound: Sodium bisulfite
- F X (%) (F X; 0.01 mg/ml): 73%
- F X (%) (F X; 0.05 mg/ml): 68%
- F X (%) (F X; 0.1 mg/ml): 66%
- effect on Factor X (F X; 0.5 mg per ml): significant inhibitory effect
- F X (%) (F X; 0.5 mg/ml): 31%
- F X (%) (F X; 1.0 mg/ml): 11%
- F X (%) (F X; 5.0 mg/ml): 3%
- F IX (%) (F IX; 0.01 mg/ml): 60%
- F IX (%) (F IX; 0.05 mg/ml): 52%
- F IX (%) (F IX; 0.1 mg/ml): 56%
- effect on Factor IX (F IX; 0.5 mg per ml): significant inhibitory effect
- F IX (%) (F IX; 0.5 mg/ml): 4%
- F IX (%) (F IX; 1.0 mg/ml): 3%
- F IX (%) (F IX; 5.0 mg/ml): <1%
- F VII (%) (F VII; 0.01 mg/ml): 67%
- F VII (%) (F VII; 0.05 mg/ml): 57%
- F VII (%) (F VII; 0.1 mg/ml): 51%
- effect on Factor VII (F VII; 0.5 mg per ml): significant inhibitory effect
- F VII (%) (F VII; 0.5 mg/ml): 23%
- F VII (%) (F VII; 1.0 mg/ml): 8%
- F VII (%) (F VII; 5.0 mg/ml): 1%
- PT and PTT (effect in words) (rabbit plasma): significantly prolong
- blood coagulation factors (rabbit plasma; rabbit plasma, compared with human plasma): not as sensitive
- PT (human plasma [1]): 22.42 s
- PT(seconds) Exp. 1 A (human plasma [1]): 25.5 s and 22.1 s
- PT(seconds) Exp. 2 A (human plasma [1]): 23.2 s
- PT (human plasma [1]; 0.01 mg/ml, U.S.P. grade, control 34.67): 33.37 s
- PT (human plasma [1]; 0.05 mg/ml, U.S.P. grade, control 34.67): 34.00 s
- PT (human plasma [1]; 0.1 mg/ml, U.S.P. grade, control 34.67): 34.85 s
- PT (human plasma [1]; 0.5 mg/ml, U.S.P. grade, control 34.67): 42.73 s
- PT (human plasma [1]; 1.0 mg/ml, U.S.P. grade, control 34.67): 85.33 s
- PT (human plasma [1]; 5.0 mg/ml, U.S.P. grade, control 34.67): >150 s
- PT (human plasma [1]; coded agents 0.5mg/ml, […], control 12.92): 23.06 s
- PT (effect in words) (human plasma [1]; in vitro, 0.5 mg/ml): significantly prolong
- PTT(seconds) Exp. 1 A (human plasma [2]): 128.2 s
- PTT (human plasma [2]; 0.01 mg/ml, U.S.P. grade, control 12.20): 12.33 s
- PTT (human plasma [2]; 0.05 mg/ml, U.S.P. grade, control 12.20): 12.43 s
- PTT (human plasma [2]; 0.1 mg/ml, U.S.P. grade, control 12.20): 12.85 s
- PTT (human plasma [2]; 0.5 mg/ml, U.S.P. grade, control 12.20): 15.43 s
- PTT (human plasma [2]; 0.5 mg/ml, two different days, control 42.6 / 42.10): 120.35 s
- PTT (human plasma [2]; 1.0 mg/ml, U.S.P. grade, control 12.20): 22.63 s
- PTT (human plasma [2]; 5.0 mg/ml, U.S.P. grade, control 12.20): >150 s
- PTT(seconds) Exp. 2 A (human plasma [2]; Active Agent 0.5/ml, test sequences A and B, control 50.5 (A), 44.5 (B)): 162.6 s and 121.9 s
- PTT (human plasma [2]; coded agents 0.5mg/ml, […], control 43.38): 114.80 s
- PTT (effect in words) (human plasma [2]; in vitro, 0.5 mg/ml): significantly prolong
- mortality of infused rabbits [3]: died
- radioactivity (I 125 fibrinogen) in damaged jugular vein of saline control rabbit relative to treated rabbit [3]: seven times
- thrombus formation in the jugular vein (conclusion in words) [3]: definite positive effect of decreasing thrombus formation
- F XII (%) (F XII; 0.01 mg/ml): 94%
- F XII (%) (F XII; 0.05 mg/ml): 87%
- F XII (%) (F XII; 0.1 mg/ml): 79%
- effect on Factor XII (F XII; 0.5 mg per ml): significant inhibitory effect
- F XII (%) (F XII; 0.5 mg/ml): 17%
- F XII (%) (F XII; 1.0 mg/ml): 3%
- F XII (%) (F XII; 5.0 mg/ml): <1%
- F XI (%) (F XI; 0.01 mg/ml): 98%
- F XI (%) (F XI; 0.05 mg/ml): 81%
- F XI (%) (F XI; 0.1 mg/ml): 58%
- effect on Factor XI (F XI; 0.5 mg per ml): significant inhibitory effect
- F XI (%) (F XI; 0.5 mg/ml): 27%
- F XI (%) (F XI; 1.0 mg/ml): 4%
- F XI (%) (F XI; 5.0 mg/ml): <1%

— patent publication EP0043274A2, “Antithrombotic treatment” (priority 1980, dated 1982)
